Measurements taken from publication PMC4805251, “Novel Antimicrobial Peptides EeCentrocins 1, 2 and EeStrongylocin 2 from the Edible Sea Urchin Echinus esculentus Have 6-Br-Trp Post-Translational Modifications” (PLoS ONE, 2016).
Like-named read-outs stand apart in the source and are kept apart here. Ends that are not written are not given here.

Experiments:
Type in all cases: cell-based
[1] = tested on: S. epidermidis #1 (5179-R1)
From the text: (§1) Organic phase extract, SPE eluates and HPLC-fractions were screened for antibacterial activity against two strains of Gram-positive and two strains of Gram-negative bacteria; Corynebacterium glutamicum (ATCC 13032), Staphylococcus aureus (ATCC 9144), Pseudomonas aeruginosa #1 (ATCC 27853) and Escherichia coli #1 (ATCC 25922). For extended antimicrobial bioactivity screening, the following bacterial strains were used, three strains of Gram-positive bacteria; S. epidermidis #1 (5179-R1) kindly provided by Holger Rohde, S. epidermidis #2, RP62A (ATCC 35984) and Bacillus subtilis (ATCC 23857) in addition to the Gram-negative P. aeruginosa #2, PA 01 (ATCC 15692, DSM 19880) and E. coli #2, NR 698 (MC4100/ptD4213).
(§2) Cultures stored at -80°C were smeared onto agar plates and cultured for 24 h at 35°C. One colony of each bacterial strain was transferred to 5 ml liquid Müller-Hinton (MH, Difco, Lawrence, KS, USA) medium in a glass tube and left shaking at room temperature overnight at 600 rpm. The cultures of actively growing bacteria (20 μl) were further inoculated in 5 ml MH medium and left shaking for 2 h at room temperature. The antibacterial assays were performed as previously described by. Briefly, the bacterial cultures were diluted with medium to 1.3–1.5 × 10^4 bacteria/ml final concentrations and an aliquot of 50 μl was added to each well in 96-well Nunclon^TM microtiter plates (Nagle Nunc Int., Denmark) preloaded with 50 μl test sample solutions, i.e. extracts, eluates or peptides.
(§3) The test plates were incubated for 24 h at 35°C with optical density (OD595) recorded every hour using an Envision 2103 multilabel reader, controlled by the Wallac Envision manager (PerkinElmer, CT, USA). Antibacterial activity was defined as a sample showing >90% inhibition (as measured by optical density) compared to the negative (growth) controls, consisting of bacteria and water. Oxytetracycline (20 μM) served as a positive (inhibition) control. The minimum inhibitory concentration (MIC) was defined as the lowest concentration of a sample displaying >90% inhibition.
(§4) ACN-phases and SPE eluates were tested with two-fold serial dilutions ranging from 5.0 to 0.005 mg/ml (5.0, 2.5, 1.25, 0.63, 0.31, 0.16, 0.08, 0.04, 0.02, 0.01, 0.005 mg/ml) whereas HPLC-fractions were tested undiluted for antibacterial activity. Pure, native peptides and synthetic peptides (described in section 2.11) were tested for antimicrobial activity in concentrations ranging from 100 to 0.1 μM in two-fold serial dilutions (100, 50, 25, 12.5, 6.25, 3.13, 1.56, 0.78, 0.39, 0.20, 0.10 μM). Antimicrobial assays involving natural peptides (i.e. fractionated natural material) were run only once due to limited quantities, whereas all other assays were run in triplicates.

[2] = tested on: E. coli #2, NR 698 (MC4100/ptD4213)
From the text: as §1, §2, §3, §4

[3] = tested on: S. epidermidis #2, RP62A (ATCC 35984)
From the text: as §1, §2, §3, §4

[4] = tested on: Bacillus subtilis (ATCC 23857)
From the text: as §1, §2, §3, §4

[5] = tested on: Staphylococcus aureus (ATCC 9144)
From the text: as §1, §2, §3, §4

[6] = tested on: P. aeruginosa #2, PA 01 (ATCC 15692, DSM 19880)
From the text: as §1, §2, §3, §4

[7] = tested on: Corynebacterium glutamicum (ATCC 13032)
From the text: as §1, §2, §3, §4

Cladosporium sp. = tested on: Cladosporium sp.
Experimental: (§5) The synthetic peptides (see section 2.11) were also screened for antifungal activity against Candida albicans (ATCC 10231), Saccharomyces cerevisiae, Rhodotorula sp., Aureobasidium pullulans and Cladosporium sp. The antifungal assay was performed as described previously. Briefly, fungal spores were dissolved in potato dextrose broth (Difco, Lawrence, KS, USA) to a concentration of 4 × 10^5 spores/ml. The spores (50 μl) were inoculated on 96-well Nunclon^TM microtiter plates containing the synthetic peptides (50 μl) dissolved in MQ-H2O. […] MIC was defined as the lowest concentration of peptide giving no visible fungal growth. The negative (growth) control contained medium and fungal solution.
as §4

[8] = tested on: Candida albicans (ATCC 10231)
Experimental: as §5, §4

Aureobasidium pullulans = tested on: Aureobasidium pullulans
Experimental: as §5, §4

Rhodotorula sp. = tested on: Rhodotorula sp.
Experimental: as §5, §4

Saccharomyces cerevisiae = tested on: Saccharomyces cerevisiae
Experimental: as §5, §4

[9] = MH medium, 24 h at 35°C, OD595, >90% inhibition, value of Table 2, triplicates
[10] = MH medium, 24 h at 35°C, OD595, lowest concentration with >90% inhibition, value of Table 2, native peptides run once, synthetic in triplicates
[11] = potato dextrose broth, 24 h at room temperature, visual, no visible fungal growth, value of Table 2, triplicates

## WGHKLRSSWNKVKHAVKKGAGYASGACRVLGH [EeCentrocin 2 HC]
[1]; [9]
  MIC S. epidermidis #1: 3.13 µM
[1]; parallel 1 of three
  MIC raw data S. epidermidis #1: 3.13 µM
[1]; parallel 2 of three
  MIC raw data S. epidermidis #1: 3.13 µM
[1]; parallel 3 of three
  MIC raw data S. epidermidis #1: 1.56 µM
[2]; [9]
  MIC E. coli #2: 6.25 µM
[2]; parallel 1 of three
  MIC raw data E. coli #2: 6.25 µM
[2]; parallel 2 of three
  MIC raw data E. coli #2: 3.13 µM
[2]; parallel 3 of three
  MIC raw data E. coli #2: 3.13 µM
[3]; [9]
  MIC S. epidermidis #2: 3.13 µM
[3]; parallel 1 of three
  MIC raw data S. epidermidis #2: 3.13 µM
[3]; parallel 2 of three
  MIC raw data S. epidermidis #2: 3.13 µM
[3]; parallel 3 of three
  MIC raw data S. epidermidis #2: 3.13 µM
[4]; MH medium, 24 h at 35°C, OD595, lowest concentration with >90% inhibition, value of Table 2, synthetic peptides in triplicates
  MIC B. subtilis: 6.25 µM
[4]; parallel 1 of three
  MIC raw data B. subtilis: 6.25 µM
[4]; parallel 2 of three
  MIC raw data B. subtilis: 3.13 µM
[4]; parallel 3 of three
  MIC raw data B. subtilis: 3.13 µM
[5]; [10]
  MIC S. aureus: 6.25 µM
[5]; parallel 1 of three
  MIC raw data S. aureus: 6.25 µM
[5]; parallel 2 of three
  MIC raw data S. aureus: 6.25 µM
[5]; parallel 3 of three
  MIC raw data S. aureus: 6.25 µM
[6]; [9]
  MIC P. aeruginosa #2: 6.25 µM
[6]; parallel 1 of three
  MIC raw data P. aeruginosa #2: 6.25 µM
[6]; parallel 2 of three
  MIC raw data P. aeruginosa #2: 6.25 µM
[6]; parallel 3 of three
  MIC raw data P. aeruginosa #2: 3.13 µM
[7]; [10]
  MIC C. glutamicum: 0.78 µM
[7]; parallel 1 of three
  MIC raw data C. glutamicum: 0.78 µM
[7]; parallel 2 of three
  MIC raw data C. glutamicum: 0.78 µM
[7]; parallel 3 of three
  MIC raw data C. glutamicum: 0.78 µM
Cladosporium sp.; parallel 1 of three
  MIC raw data Cladosporium sp.: 12.5 µM
Cladosporium sp.; parallel 2 of three
  MIC raw data Cladosporium sp.: 12.5 µM
Cladosporium sp.; parallel 3 of three
  MIC raw data Cladosporium sp.: 12.5 µM
Cladosporium sp.; [11]
  MIC Cladosporium sp.: 12.5 µM
[8]; parallel 1 of three
  MIC raw data C. albicans: 50 µM
[8]; parallel 2 of three
  MIC raw data C. albicans: 50 µM
[8]; parallel 3 of three
  MIC raw data C. albicans: 25 µM
[8]; [11]
  MIC C. albicans: 50 µM
Aureobasidium pullulans; parallel 1 of three
  MIC raw data A. pullulans: 25 µM
Aureobasidium pullulans; parallel 2 of three
  MIC raw data A. pullulans: 25 µM
Aureobasidium pullulans; parallel 3 of three
  MIC raw data A. pullulans: 25 µM
Aureobasidium pullulans; [11]
  MIC A. pullulans: 25 µM
Rhodotorula sp.; parallel 1 of three
  MIC raw data Rhodotorula sp.: 3.13 µM
Rhodotorula sp.; parallel 2 of three
  MIC raw data Rhodotorula sp.: 3.13 µM
Rhodotorula sp.; parallel 3 of three
  MIC raw data Rhodotorula sp.: 3.13 µM
Rhodotorula sp.; [11]
  MIC Rhodotorula sp.: 3.13 µM
Saccharomyces cerevisiae; parallel 1 of three
  MIC raw data S. cerevisiae: 12.5 µM
Saccharomyces cerevisiae; parallel 2 of three
  MIC raw data S. cerevisiae: 12.5 µM
Saccharomyces cerevisiae; parallel 3 of three
  MIC raw data S. cerevisiae: 12.5 µM
Saccharomyces cerevisiae; [11]
  MIC S. cerevisiae: 12.5 µM
